Our source for the AC50 values is US20250171437A1 (Agios Pharmaceuticals,Inc., priority 2022, published 2025).

One test addresses T1, human PAH with the R408W mutation (A375 R408W cells) (Homo sapiens, UniProt P00439, R408W).
T1 construct: expressed in transfected cells
T1 sequence (P00439 1-452 R408W): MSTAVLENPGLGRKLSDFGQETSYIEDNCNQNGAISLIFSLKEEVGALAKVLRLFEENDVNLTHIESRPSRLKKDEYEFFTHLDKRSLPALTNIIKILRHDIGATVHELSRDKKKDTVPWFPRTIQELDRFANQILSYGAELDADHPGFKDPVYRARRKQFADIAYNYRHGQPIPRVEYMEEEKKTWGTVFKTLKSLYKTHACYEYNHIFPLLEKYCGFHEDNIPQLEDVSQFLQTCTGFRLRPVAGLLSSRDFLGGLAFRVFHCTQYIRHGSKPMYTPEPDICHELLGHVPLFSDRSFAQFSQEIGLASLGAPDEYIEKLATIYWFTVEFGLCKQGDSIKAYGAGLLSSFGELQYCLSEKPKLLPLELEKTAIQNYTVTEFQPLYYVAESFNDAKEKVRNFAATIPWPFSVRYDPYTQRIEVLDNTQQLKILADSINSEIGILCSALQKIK
In words: Cell Based Phenylalanine Flux Assay. Particulars: A375 R408W cells; 24 hrs with compound, then 20 μM sepiapterin and 800 μM 13C9,15N-Phenylalanine for 4 hours; 13C-Tyrosine by LC-MS; average where tested multiple times. In outline: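 LC-MS quantitation of 13C-tyrosine in media gave AC50 values. Stable A375 R408W PAH cells were preincubated 24 h with compound, then fed 800 μM labelled Phe plus 20 μM sepiapterin for 4 h. Dose curves were 10-point, tested in duplicate, averaged over repeat runs.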
For `CC(C)(O)c1nc(C(F)F)c(C(=O)N2CCc3[nH]cnc3[C@H]2c2nc3cc(F)ccc3o2)o1` (single isomer, unassigned) [Example 107], the AC50 was ≤ 0.5 µM. Consider `CC(C)(O)c1nc(C(F)F)c(C(=O)N2CCc3[nH]cnc3[C@@H]2c2nc3cc(F)ccc3o2)o1` (single isomer, unassigned) [Example 108], for which the AC50 was in the range of 1 to 5 µM. As for `CC(O)c1nc(Br)c(C(=O)N2CCc3[nH]cnc3[C@@H]2c2nc3cc(F)ccc3o2)o1` (single isomer, unassigned) [Example 223], the AC50 lay within 1 to 5 µM. As to `CC(O)c1nc(Br)c(C(=O)N2CCc3[nH]cnc3[C@@H]2c2nc3cc(F)ccc3o2)o1` (single isomer, unassigned) [Example 224], the half-maximal activity concentration (AC50) is 1 to 5 µM. For `CC(O)c1nc(Br)c(C(=O)N2CCc3[nH]cnc3[C@H]2c2nc3cc(F)ccc3o2)o1` (single isomer, unassigned) [Example 225], the half-maximal activity concentration (AC50) lay within 1 to 5 µM. As to `CC(O)c1nc(Br)c(C(=O)N2CCc3[nH]cnc3[C@H]2c2nc3cc(F)ccc3o2)o1` (single isomer, unassigned) [Example 226], the AC50 is ≤ 0.5 µM. On to `CC(O)c1nc(Cl)c(C(=O)N2CCc3[nH]cnc3[C@@H]2c2nc3cc(F)ccc3o2)o1` (single isomer, unassigned) [Example 233], for which the AC50 is 1 to 5 µM. `CC(O)c1nc(Cl)c(C(=O)N2CCc3[nH]cnc3[C@@H]2c2nc3cc(F)ccc3o2)o1` (single isomer, unassigned) [Example 234]: the AC50 was 1 to 5 µM. The same measure, in the same setting: to `CC(O)c1nc(Cl)c(C(=O)N2CCc3[nH]cnc3[C@H]2c2nc3cc(F)ccc3o2)o1` (single isomer, unassigned) [Example 235] belongs 1 to 5 µM; to `CC(O)c1nc(Cl)c(C(=O)N2CCc3[nH]cnc3[C@H]2c2nc3cc(F)ccc3o2)o1` (single isomer, unassigned) [Example 236], 0.5 to 1 µM.

On to `CC1CN(C(=O)c2ocnc2C(F)F)[C@H](c2nc3cccc(F)c3o2)c2nc[nH]c21` (single isomer, unassigned) [Example 803], for which the half-maximal activity concentration (AC50) was ≤ 0.5 µM.

Turning to `CC1CN(C(=O)c2ocnc2C(F)F)[C@H](c2nc3cccc(F)c3o2)c2nc[nH]c21` (single isomer, unassigned) [Example 804], the AC50 is ≤ 0.5 µM.

As for `CC1CN(C(=O)c2ocnc2C(F)F)[C@@H](c2nc3cccc(F)c3o2)c2nc[nH]c21` (single isomer, unassigned) [Example 805], the AC50 lay in the range of 1 to 5 µM.

As for `CC1CN(C(=O)c2ocnc2C(F)F)[C@@H](c2nc3cccc(F)c3o2)c2nc[nH]c21` (single isomer, unassigned) [Example 806], the concentration at half-maximal activity (AC50) lay in the range of 1 to 5 µM. For `O=C(c1cnco1)N1Cc2[nH]cnc2[C@H]1c1nc2ccccc2o1` (single isomer, unassigned) [Example 925], the AC50 was ≥ 5 µM. Turning to `c1ccc2oc([C@@H]3c4nc[nH]c4CN3c3nc4ccccc4o3)nc2c1` (single isomer, unassigned) [Example 931], the AC50 fell in the range of 1 to 5 µM. With `c1ccc2oc([C@H]3c4nc[nH]c4CN3c3nc4ccccc4o3)nc2c1` (single isomer, unassigned) [Example 932], the AC50 fell in the range of 1 to 5 µM.

As to `Cc1ccc2oc([C@@H]3c4nc[nH]c4CCN3C(=O)c3ncc(Cl)s3)nc2c1` [Example 1, (S)-(5-chlorothiazol-2-yl)(4-(5-methylbenzo[d]oxazol-2-yl)-6,7-dihydro-1H-imidazo[4,5-c]pyridin-5(4H)-yl)methanone], the AC50 lay within 0.5 to 1 µM.

Regarding `Cc1ccc2oc([C@H]3c4nc[nH]c4CCN3C(=O)c3ncc(Cl)s3)nc2c1` [Example 2, (R)-(5-chlorothiazol-2-yl)(4-(5-methylbenzo[d]oxazol-2-yl)-6,7-dihydro-1H-imidazo[4,5-c]pyridin-5(4H)-yl)methanone], the AC50 was ≥ 5 µM. Turning to `O=C(CC1CC1)N1CCc2[nH]cnc2[C@H]1c1nc2ccc(Br)cc2o1` [Example 3, (S)-1-(4-(6-bromobenzo[d]oxazol-2-yl)-6,7-dihydro-1H-imidazo[4,5-c]pyridin-5(4H)-yl)-2-cyclopropylethanone], the AC50 is ≤ 0.5 µM. As to `O=C(CC1CC1)N1CCc2[nH]cnc2[C@@H]1c1nc2ccc(Br)cc2o1` [Example 4, (R)-1-(4-(6-bromobenzo[d]oxazol-2-yl)-6,7-dihydro-1H-imidazo[4,5-c]pyridin-5(4H)-yl)-2-cyclopropylethanone], the concentration at half-maximal activity (AC50) is ≥ 5 µM.

With `O=C(c1cnc(-c2ccccn2)s1)N1CCc2[nH]cnc2[C@H]1c1nc2cc(F)ccc2o1` [Example 5, (S)-(4-(5-fluorobenzo[d]oxazol-2-yl)-6,7-dihydro-1H-imidazo[4,5-c]pyridin-5(4H)-yl)(2-(pyridin-2-yl)thiazol-5-yl)methanone], the AC50 was ≤ 0.5 µM. For `O=C(c1cnc(-c2ccccn2)s1)N1CCc2[nH]cnc2[C@@H]1c1nc2cc(F)ccc2o1` [Example 6, (R)-(4-(5-fluorobenzo[d]oxazol-2-yl)-6,7-dihydro-1H-imidazo[4,5-c]pyridin-5(4H)-yl)(2-(pyridin-2-yl)thiazol-5-yl)methanone], the AC50 was in the range of 1 to 5 µM. As to `O=C(c1cnc(-c2ccccn2)o1)N1CCc2[nH]cnc2[C@H]1c1nc2ccc(Br)cc2o1` [Example 7, (S)-(4-(6-bromobenzo[d]oxazol-2-yl)-6,7-dihydro-1H-imidazo[4,5-c]pyridin-5(4H)-yl)(2-(pyridin-2-yl)oxazol-5-yl)methanone], the AC50 was in the range of 0.5 to 1 µM.

Regarding `O=C(c1cnc(-c2ccccn2)o1)N1CCc2[nH]cnc2[C@@H]1c1nc2ccc(Br)cc2o1` [Example 8, (R)-(4-(6-bromobenzo[d]oxazol-2-yl)-6,7-dihydro-1H-imidazo[4,5-c]pyridin-5(4H)-yl)(2-(pyridin-2-yl)oxazol-5-yl)methanone], the AC50 fell in the range of 1 to 5 µM.

The test is the same for the next values; noted with them: A375 cells expressing R408W PAH; 24 hrs with compound, then 20 μM sepiapterin and 800 μM 13C9,15N-Phenylalanine for 4 hours; 13C-Tyrosine by LC-MS; average where tested multiple times.
With `Cc1cccc2nc([C@H]3c4nc[nH]c4CCN3C(=O)c3cnn4cc(N5CCC(O)CC5)ccc34)oc12` (single isomer, unassigned), the concentration at half-maximal activity (AC50) was ≥ 5 µM.

For `Cc1cccc2nc([C@H]3c4nc[nH]c4CCN3C(=O)c3cnc(C(C)(C)O)o3)oc12` (single isomer, unassigned), the half-maximal activity concentration (AC50) is ≥ 5 µM. The same measure, in the same setting: to `O=C(C1CC1)N1CCc2[nH]cnc2[C@@H]1c1nc2cc(F)ccc2o1` (single isomer, unassigned) belongs ≥ 5 µM. Same read-out and setting: to `CN1C2CCC1CN(c1ccc3c(C(=O)N4CCc5[nH]cnc5C4c4nc5cc(F)ccc5o4)cnn3c1)C2` (single isomer, unassigned) [listing 1 of 2 here] belongs ≥ 5 µM.

As to `CC(=O)Cn1cc(C(=O)N2CCc3[nH]cnc3[C@H]2c2nc3cc(F)ccc3o2)cn1` (single isomer, unassigned), the half-maximal activity concentration (AC50) was ≥ 5 µM. Turning to `O=C(CCc1cncs1)N1CCc2[nH]cnc2[C@H]1c1nc2c(F)cccc2o1` (single isomer, unassigned), the concentration at half-maximal activity (AC50) fell in the range of 1 to 5 µM. With `O=C([C@H]1CC1(F)F)N1CCc2[nH]cnc2[C@H]1c1nc2cc(F)ccc2o1` (single isomer, unassigned), the AC50 lay in the range of 1 to 5 µM. With `O=C(c1cn[nH]c1)N1CCc2[nH]cnc2[C@H]1c1nc2cc(F)ccc2o1` (single isomer, unassigned), the AC50 was ≥ 5 µM. Turning to `O=C(c1cnn2cc(OCCn3cccn3)ccc12)N1CCc2[nH]cnc2[C@H]1c1nc2cc(F)ccc2o1` (single isomer, unassigned), the AC50 lay within 1 to 5 µM. On to `CN1C2CCC1CN(c1ccc3c(C(=O)N4CCc5[nH]cnc5C4c4nc5cc(F)ccc5o4)cnn3c1)C2` (single isomer, unassigned) [listing 2 of 2 here], for which the AC50 lay in the range of 1 to 5 µM. Turning to `O=C(c1cnn2cc(N3CCNCC3)ccc12)N1CCc2[nH]cnc2[C@H]1c1nc2cc(F)ccc2o1` (single isomer, unassigned), the AC50 was ≥ 5 µM.

For `CC(C)(O)c1cc(C(=O)N2CCc3[nH]cnc3C2c2nc3ccc(F)cc3o2)on1` (single isomer, unassigned) [4R enantiomer of 2-{5-[4-(6-fluoro-1,3-benzoxazol-2-yl)-1H,4], the AC50 was ≥ 5 µM. For `CNC(C)(C)c1nc(C)c(C(=O)N2CCc3[nH]cnc3C2c2nc3cc(F)ccc3o2)o1` (single isomer, unassigned) [4R enantiomer of (2-{5-[4-(5-fluoro-1,3-benzoxazol-2-yl)-1H,], the AC50 is ≥ 5 µM.

Take `CC(C)(C)OC(=O)N1CCN(c2ccc3c(C(=O)N4CCc5[nH]cnc5C4c4nc5cc(F)ccc5o4)cnn3c2)CC1` (single isomer, unassigned) [4R enantiomer of tert-butyl 4-{3-[4-(5-fluoro-1,3-benzoxazol]: the AC50 is ≥ 5 µM. Consider `NCCc1ccc2c(C(=O)N3CCc4[nH]cnc4C3c3nc4cc(F)ccc4o3)cnn2c1` (single isomer, unassigned) [4S enantiomer of 2-{3-[4-(5-fluoro-1,3-benzoxazol-2-yl)-1H,4], for which the AC50 was ≥ 5 µM.

`CN(C)CCNc1ccc2c(C(=O)N3CCc4[nH]cnc4C3c3nc4cc(F)ccc4o3)cnn2c1` (single isomer, unassigned) [4S enantiomer of N-[2-(dimethylamino)ethyl]-3-[4-(5-fluoro-1]: the AC50 was ≥ 5 µM.

A word on the AC50: it is the midpoint of the concentration-response curve, whichever way the signal moves.
